Measured values as given in ChEMBL document CHEMBL3885861, “Open TG-GATES”.

Species: Rattus norvegicus
Assay: Open TG-GATES - Regimen: Single
Format: toxicity, organism-based, Sprague-Dawley
Design: regimen Single, gender Male, age 6 weeks
Conditions: in vivo, iv, 0 mg/kg, route intravenous injection, dose level Control; for APTT / Bas / Eos / Fbg / Hb / Ht / Lym / MCH / MCHC / MCV / Mono / Neu / PT / Plat / RBC / Ret / WBC: tissue Blood; for KIDNEY_L / KIDNEY_R / KIDNEY_TOTAL: tissue Kidney; for LIVER: tissue Liver; for A/G / ALP / ALT / AST / BUN / CRE / Ca / Cl / DBIL / GLC / IP / K / LDH / Na / PL / RALB / TBIL / TC / TG / TP / gamma-GTP: tissue Plasma

`C[C@@H]1[C@H](O)[C@@H](C)/C=C/C=C/C=C/C=C/C=C/C=C/C=C/[C@H](O[C@@H]2O[C@H](C)[C@@H](O)[C@H](N)[C@@H]2O)C[C@@H]2O[C@](O)(C[C@@H](O)C[C@@H](O)[C@H](O)CC[C@@H](O)C[C@@H](O)CC(=O)O[C@H]1C)C[C@H](O)[C@H]2C(=O)O` [AMPHOTERICIN B] gave a TERMINAL_BW (3 h) of 219.1 g, an APTT (3 h) of 17.6 s and a Bas (3 h) of 0%. For the same compound, the Eos (3 h) was 0.6%, the Fbg (3 h) was 275.4 mg/dL and the Hb (3 h) was 13.2 g/dL. It also gave a Ht (3 h) of 39.1%, a Lym (3 h) of 78.4% and an MCH (3 h) of 20.8 pg. It also gave an MCHC (3 h) of 33.9%, an MCV (3 h) of 61.3 fL and a Mono (3 h) of 2.6%. For the same compound, the Neu (3 h) was 17.2%, the PT (3 h) was 13.1 s and the Plat (3 h) was 131.5 x10_4/uL. The RBC (3 h) was 638.4 x10_4/ul, the Ret (3 h) was 7% and the WBC (3 h) was 102.7 x10_2/uL. The KIDNEY_L (3 h) was 0.9 g, the KIDNEY_R (3 h) was 1 g and the KIDNEY_TOTAL (3 h) was 1.9 g. For the same compound, the LIVER (3 h) was 9.9 g, the A/G (3 h) was 0.8 and the ALP (3 h) was 1671 IU/L. For the same compound, the ALT (3 h) was 40.4 IU/L, the AST (3 h) was 86 IU/L and the BUN (3 h) was 11.4 mg/dL. The CRE (3 h) was 0.2 mg/dL, the Ca (3 h) was 11 mg/dL and the Cl (3 h) was 106.2 meq/L. The DBIL (3 h) was 0.02 mg/dL, the GLC (3 h) was 167.2 mg/dL and the IP (3 h) was 8.3 mg/dL. It also gave a K (3 h) of 3.9 meq/L, an LDH (3 h) of 67 IU/L and a Na (3 h) of 142 meq/L. For the same compound, the PL (3 h) was 130.4 mg/dL, the RALB (3 h) was 2.5 g/dL and the TBIL (3 h) was 0.066 mg/dL. It also gave a TC (3 h) of 75.4 mg/dL, a TG (3 h) of 58.8 mg/dL and a TP (3 h) of 5.5 g/dL. The gamma-GTP (3 h) was 1.6 IU/L, the TERMINAL_BW (6 h) was 212 g and the APTT (6 h) was 17 s. It also gave a Bas (6 h) of 0%, an Eos (6 h) of 0.8% and a Fbg (6 h) of 271.2 mg/dL. It also gave a Hb (6 h) of 13.4 g/dL, a Ht (6 h) of 39.9% and a Lym (6 h) of 77.2%. The MCH (6 h) was 21.1 pg, the MCHC (6 h) was 33.6% and the MCV (6 h) was 62.6 fL. For the same compound, the Mono (6 h) was 1.8%, the Neu (6 h) was 19.6% and the PT (6 h) was 13.1 s. It also gave a Plat (6 h) of 129.4 x10_4/uL, an RBC (6 h) of 637.4 x10_4/ul and a Ret (6 h) of 8.6%. It also gave a WBC (6 h) of 90.4 x10_2/uL, a KIDNEY_L (6 h) of 0.9 g and a KIDNEY_R (6 h) of 0.9 g. For the same compound, the KIDNEY_TOTAL (6 h) was 1.9 g, the LIVER (6 h) was 8.8 g and the A/G (6 h) was 0.8. For the same compound, the ALP (6 h) was 1553.8 IU/L, the ALT (6 h) was 35.6 IU/L and the AST (6 h) was 68 IU/L. For the same compound, the BUN (6 h) was 8.4 mg/dL, the CRE (6 h) was 0.1 mg/dL and the Ca (6 h) was 10.6 mg/dL. It also gave a Cl (6 h) of 105 meq/L, a DBIL (6 h) of 0.014 mg/dL and a GLC (6 h) of 182.2 mg/dL. It also gave an IP (6 h) of 9.9 mg/dL, a K (6 h) of 3.9 meq/L and an LDH (6 h) of 50.8 IU/L. The Na (6 h) was 142 meq/L, the PL (6 h) was 125.8 mg/dL and the RALB (6 h) was 2.5 g/dL. It also gave a TBIL (6 h) of 0.064 mg/dL, a TC (6 h) of 76.2 mg/dL and a TG (6 h) of 46.8 mg/dL. The TP (6 h) was 5.5 g/dL, the gamma-GTP (6 h) was 1.6 IU/L and the TERMINAL_BW (9 h) was 208.7 g. For the same compound, the APTT (9 h) was 17.4 s, the Bas (9 h) was 0% and the Eos (9 h) was 1%. For the same compound, the Fbg (9 h) was 281.4 mg/dL, the Hb (9 h) was 13.4 g/dL and the Ht (9 h) was 39.1%. For the same compound, the Lym (9 h) was 71.8%, the MCH (9 h) was 21.1 pg and the MCHC (9 h) was 34.2%. For the same compound, the MCV (9 h) was 61.6 fL, the Mono (9 h) was 1.8% and the Neu (9 h) was 24.4%. The PT (9 h) was 13.2 s, the Plat (9 h) was 136.6 x10_4/uL and the RBC (9 h) was 635 x10_4/ul. The Ret (9 h) was 8.1%, the WBC (9 h) was 80.2 x10_2/uL and the KIDNEY_L (9 h) was 0.9 g. It also gave a KIDNEY_R (9 h) of 0.9 g, a KIDNEY_TOTAL (9 h) of 1.8 g and an LIVER (9 h) of 8.3 g. It also gave an A/G (9 h) of 0.8, an ALP (9 h) of 1611.8 IU/L and an ALT (9 h) of 30.6 IU/L. It also gave an AST (9 h) of 67.6 IU/L, a BUN (9 h) of 8.6 mg/dL and a CRE (9 h) of 0.1 mg/dL. For the same compound, the Ca (9 h) was 10.6 mg/dL, the Cl (9 h) was 106.4 meq/L and the DBIL (9 h) was 0.018 mg/dL. For the same compound, the GLC (9 h) was 170.2 mg/dL, the IP (9 h) was 9.7 mg/dL and the K (9 h) was 3.7 meq/L. It also gave an LDH (9 h) of 54.8 IU/L, a Na (9 h) of 142.2 meq/L and a PL (9 h) of 120.8 mg/dL. For the same compound, the RALB (9 h) was 2.5 g/dL, the TBIL (9 h) was 0.068 mg/dL and the TC (9 h) was 72.6 mg/dL. For the same compound, the TG (9 h) was 43.8 mg/dL, the TP (9 h) was 5.6 g/dL and the gamma-GTP (9 h) was 1.8 IU/L. The TERMINAL_BW (24 h) was 228.2 g, the APTT (24 h) was 15.8 s and the Bas (24 h) was 0.2%. It also gave an Eos (24 h) of 1%, a Fbg (24 h) of 302.6 mg/dL and a Hb (24 h) of 13 g/dL. The Ht (24 h) was 38.7%, the Lym (24 h) was 78.8% and the MCH (24 h) was 20.9 pg. It also gave an MCHC (24 h) of 33.6%.
